Results: patent publication US11331299B2, “Medicinal use of serrulatane diterpenes” (The University of Sydney, priority 2016, dated 2022)
Like-named read-outs stand apart in the source and are kept apart here.

System: 280 human cancer cell lines
Assay: OncoPanel cell proliferation assay (10-day)
Type: cell-based
Settings: Homo sapiens; for GI50: read-out: Cell Count GI50; for IC50: read-out: Cell Count IC50; for EC50: read-out: Cell Count EC50
[1] = KHOS-240S, Soft Tissue - Osteosarcoma
[2] = ME-180, ME-180, Female GU - Ovary
[3] = MG-63, MG-63, Soft Tissue - Osteosarcoma
[4] = MHH-PREB-1, MHH-PREB-1, Leukemia
[5] = MIA PaCa-2, Mia PaCa-2, Pancreas
[6] = MS751, MS751, Female GU - Ovary
[7] = Malme-3M, MALME3M, Skin (Melanoma)

CC(C)=CCC[C@H](CO)[C@@H]1CC[C@@H](C)c2c1cc(C)c(O)c2O [Compound 1, 7,8,18-trihydroxyserrulat-14-ene]
GI50 [1]: 950 nM | IC50 [1]: 950 nM | EC50 (KLE, Female GU - Uterus): 3700 nM | GI50 (KLE, Female GU - Uterus): 3560 nM | IC50 (KLE, Female GU - Uterus): 3820 nM | EC50 (KPL-1, KPL-1, Breast): 810 nM | GI50 (KPL-1, KPL-1, Breast): 810 nM | IC50 (KPL-1, KPL-1, Breast): 810 nM | EC50 (KU812, KU812, Leukemia): 2810 nM | GI50 (KU812, KU812, Leukemia): 2570 nM | IC50 (KU812, KU812, Leukemia): 2810 nM | EC50 (L-428, L-428, Lymphoma): 1080 nM | GI50 (L-428, L-428, Lymphoma): 1080 nM | IC50 (L-428, L-428, Lymphoma): 1090 nM | EC50 (LNCaP, Prostate): 3900 nM | GI50 (LNCaP, Prostate): 3470 nM | IC50 (LNCaP, Prostate): 3900 nM | EC50 (LS-123, LS123, Colon): 1130 nM | GI50 (LS-123, LS123, Colon): 1030 nM | IC50 (LS-123, LS123, Colon): 1160 nM | EC50 (LS-411N, LS411N, Colon): 8720 nM | GI50 (LS-411N, LS411N, Colon): 8510 nM | IC50 (LS-411N, LS411N, Colon): 8720 nM | EC50 (LS-1034, LS1034, Colon): 1870 nM | GI50 (LS-1034, LS1034, Colon): 1830 nM | IC50 (LS-1034, LS1034, Colon): 1870 nM | EC50 (M059J, CNS - Glioma): 3090 nM | GI50 (M059J, CNS - Glioma): 3020 nM | IC50 (M059J, CNS - Glioma): 3090 nM | EC50 (MC116, MC116, Lymphoma): 3790 nM | GI50 (MC116, MC116, Lymphoma): 3780 nM | IC50 (MC116, MC116, Lymphoma): 3790 nM | EC50 (MC-IXC, CNS - Neuroblastoma): 4010 nM | GI50 (MC-IXC, CNS - Neuroblastoma): 4000 nM | IC50 (MC-IXC, CNS - Neuroblastoma): 4010 nM | EC50 (MCF7, MCF7, Breast): 1370 nM | GI50 (MCF7, MCF7, Breast): 1350 nM | IC50 (MCF7, MCF7, Breast): 1370 nM | EC50 (MDA-MB-231, MDA MB 231, Breast): 1470 nM | GI50 (MDA-MB-231, MDA MB 231, Breast): 1470 nM | IC50 (MDA-MB-231, MDA MB 231, Breast): 1480 nM | EC50 (MDA-MB-436, MDA-MB-436, Breast): 2680 nM | GI50 (MDA-MB-436, MDA-MB-436, Breast): 2670 nM | IC50 (MDA-MB-436, MDA-MB-436, Breast): 2690 nM | EC50 (MDA-MB-453, MDA MB 453, Breast): 780 nM | GI50 (MDA-MB-453, MDA MB 453, Breast): 770 nM | IC50 (MDA-MB-453, MDA MB 453, Breast): 780 nM | EC50 (MDA-MB-468, MDA MB 468, Breast): 2750 nM | GI50 (MDA-MB-468, MDA MB 468, Breast): 2740 nM | IC50 (MDA-MB-468, MDA MB 468, Breast): 2760 nM | EC50 [2]: 2250 nM | GI50 [2]: 2210 nM | IC50 [2]: 2260 nM | EC50 (MEG-01, MEG01, Leukemia): 7350 nM | GI50 (MEG-01, MEG01, Leukemia): 7220 nM | IC50 (MEG-01, MEG01, Leukemia): 7350 nM | EC50 (MES-SA, Soft Tissue - Sarcoma): 1230 nM | GI50 (MES-SA, Soft Tissue - Sarcoma): 1220 nM | IC50 (MES-SA, Soft Tissue - Sarcoma): 1230 nM | EC50 [3]: 9240 nM | GI50 [3]: 9160 nM | IC50 [3]: 9240 nM | EC50 [4]: 6170 nM | GI50 [4]: 6170 nM | IC50 [4]: 6170 nM | EC50 [5]: 2970 nM | GI50 [5]: 2970 nM | IC50 [5]: 2970 nM | EC50 (MOLT-3, MOLT-3, Leukemia): 2130 nM | GI50 (MOLT-3, MOLT-3, Leukemia): 2110 nM | IC50 (MOLT-3, MOLT-3, Leukemia): 2130 nM | EC50 (MOLT-16, MOLT-16, Leukemia): 1840 nM | GI50 (MOLT-16, MOLT-16, Leukemia): 1840 nM | IC50 (MOLT-16, MOLT-16, Leukemia): 1840 nM | EC50 [6]: 2230 nM | GI50 [6]: 2210 nM | IC50 [6]: 2230 nM | EC50 (MT-3, Colon): 3670 nM | GI50 (MT-3, Colon): 3660 nM | IC50 (MT-3, Colon): 3670 nM | EC50 (MV4-11, MV-4-11, Leukemia): 3580 nM | GI50 (MV4-11, MV-4-11, Leukemia): 3570 nM | IC50 (MV4-11, MV-4-11, Leukemia): 3580 nM | EC50 (MX1, Leukemia): 1290 nM | GI50 (MX1, Leukemia): 1290 nM | IC50 (MX1, Leukemia): 1290 nM | EC50 [7]: 1790 nM | GI50 [7]: 1660 nM | IC50 [7]: 1790 nM | EC50 (MeWo, Skin (Melanoma)): 1320 nM | GI50 (MeWo, Skin (Melanoma)): 1310 nM | IC50 (MeWo, Skin (Melanoma)): 1320 nM | EC50 (NALM-6, NALM-6, Leukemia): 1810 nM | GI50 (NALM-6, NALM-6, Leukemia): 1810 nM | IC50 (NALM-6, NALM-6, Leukemia): 1810 nM | EC50 (NAMALWA, Lymphoma): 3390 nM | GI50 (NAMALWA, Lymphoma): 3390 nM | IC50 (NAMALWA, Lymphoma): 3390 nM | EC50 (NCI-H69, NCI-H69, Lung - SCLC): 6300 nM | GI50 (NCI-H69, NCI-H69, Lung - SCLC): 5840 nM | IC50 (NCI-H69, NCI-H69, Lung - SCLC): 6440 nM
